Reference: patent publication US12077503B2, “Substituted cyclic amides and their use as herbicides” (FMC CORPORATION, priority 2015, dated 2024)

Key:
Type in all cases: in vivo
[1] = system: ivy-leaved morning glory (Ipomoea hederacea); assay: Test G Post-Emergence Protocol; details: Ipomoea, post-emergence, 312 h, read-out: Morningglory, Ivy-leaved damage rating; for pest or weed control at 15.625 g/ha: 15.625 g ai/ha, evaluated after 13 days (100=total damage to plant; 0=no damage to plant); for pest or weed control at 62.5 g/ha: 62.5 g ai/ha; for pest or weed control at 62.5 g/ha / pest or weed control at 250 g/ha: evaluated after 13 days, 100=total damage to plant, 0=no damage to plant; for pest or weed control at 250 g/ha: 250 g ai/ha
Outline: (§1)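 Values are percent visual injury at 13 days after treatment (0 none, 100 total). Treatment was a post-emergence spray at 15.625, 62.5 or 250 g/ha on 8-day-old pot plants kept at 24/16 °C.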

[2] = system: redroot pigweed (Amaranthus retroflexus); assay: Test G Post-Emergence Protocol; details: Amaranthus retroflexus, post-emergence, 312 h, read-out: Pigweed, Redroot damage rating; for pest or weed control at 15.625 g/ha: 15.625 g ai/ha, evaluated after 13 days (100=total damage to plant; 0=no damage to plant); for pest or weed control at 62.5 g/ha: 62.5 g ai/ha; for pest or weed control at 62.5 g/ha / pest or weed control at 250 g/ha: evaluated after 13 days, 100=total damage to plant, 0=no damage to plant; for pest or weed control at 250 g/ha: 250 g ai/ha
Outline: as §1

[3] = system: velvetleaf (Abutilon theophrasti); assay: Test G Post-Emergence Protocol; details: Abutilon theophrasti, post-emergence, 312 h, read-out: Velvetleaf damage rating; for pest or weed control at 15.625 g/ha: 15.625 g ai/ha, evaluated after 13 days (100=total damage to plant; 0=no damage to plant); for pest or weed control at 62.5 g/ha: 62.5 g ai/ha; for pest or weed control at 62.5 g/ha / pest or weed control at 250 g/ha: evaluated after 13 days, 100=total damage to plant, 0=no damage to plant; for pest or weed control at 250 g/ha: 250 g ai/ha
Outline: as §1

[4] = system: barnyardgrass (Echinochloa crus-galli); assay: Test G Post-Emergence Protocol; details: Echinochloa crus-galli, post-emergence, 312 h, read-out: Barnyardgrass damage rating; for pest or weed control at 15.625 g/ha: 15.625 g ai/ha, evaluated after 13 days (100=total damage to plant; 0=no damage to plant); for pest or weed control at 62.5 g/ha: 62.5 g ai/ha; for pest or weed control at 62.5 g/ha / pest or weed control at 250 g/ha: evaluated after 13 days, 100=total damage to plant, 0=no damage to plant; for pest or weed control at 250 g/ha: 250 g ai/ha
Outline: as §1

[5] = system: giant foxtail (Setaria faberi); assay: Test G Post-Emergence Protocol; details: Setaria faberi, post-emergence, 312 h, read-out: Foxtail, Giant damage rating; for pest or weed control at 15.625 g/ha: 15.625 g ai/ha, evaluated after 13 days (100=total damage to plant; 0=no damage to plant); for pest or weed control at 62.5 g/ha: 62.5 g ai/ha; for pest or weed control at 62.5 g/ha / pest or weed control at 250 g/ha: evaluated after 13 days, 100=total damage to plant, 0=no damage to plant; for pest or weed control at 250 g/ha: 250 g ai/ha
Outline: as §1

[6] = system: corn (Zea mays); assay: Test G Post-Emergence Protocol; details: Zea mays, post-emergence, 312 h, read-out: Corn damage rating; for plant injury at 15.625 g/ha: 15.625 g ai/ha, evaluated after 13 days (100=total damage to plant; 0=no damage to plant); for plant injury at 62.5 g/ha: 62.5 g ai/ha; for plant injury at 62.5 g/ha / plant injury at 250 g/ha: evaluated after 13 days, 100=total damage to plant, 0=no damage to plant; for plant injury at 250 g/ha: 250 g ai/ha
Outline: as §1

[7] = system: ivy-leaved morning glory (Ipomoea hederacea); assay: Test G Pre-Emergence Protocol; details: Ipomoea, pre-emergence, 312 h, evaluated after 13 days; for pest or weed control at 15.625 g/ha: 15.625 g ai/ha; for pest or weed control at 15.625 g/ha / pest or weed control at 250 g/ha: read-out: Morningglory, Ivy-leaved damage rating (100=total damage to plant; 0=no damage to plant); for pest or weed control at 62.5 g/ha: 62.5 g ai/ha, 100=total damage to plant, 0=no damage to plant, read-out: Morningglory, Ivy-leaved damage rating; for pest or weed control at 250 g/ha: 250 g ai/ha
Outline: (§2)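 Spraying took place one day after sowing, at 15.625, 62.5 or 250 g/ha, using an acetone/water (50:50) spray solution containing 0.5% Tween 20. Plants were kept under glasshouse conditions (24/16 °C, 14 h light, 65% humidity, watered twice daily), and injury was rated 0–100 at day 13.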

[8] = system: redroot pigweed (Amaranthus retroflexus); assay: Test G Pre-Emergence Protocol; details: Amaranthus retroflexus, pre-emergence, 312 h, evaluated after 13 days; for pest or weed control at 15.625 g/ha: 15.625 g ai/ha; for pest or weed control at 15.625 g/ha / pest or weed control at 250 g/ha: read-out: Pigweed, Redroot damage rating (100=total damage to plant; 0=no damage to plant); for pest or weed control at 62.5 g/ha: 62.5 g ai/ha, 100=total damage to plant, 0=no damage to plant, read-out: Pigweed, Redroot damage rating; for pest or weed control at 250 g/ha: 250 g ai/ha
Outline: as §2

[9] = system: velvetleaf (Abutilon theophrasti); assay: Test G Pre-Emergence Protocol; details: Abutilon theophrasti, pre-emergence, 312 h, evaluated after 13 days; for pest or weed control at 15.625 g/ha: 15.625 g ai/ha; for pest or weed control at 15.625 g/ha / pest or weed control at 250 g/ha: read-out: Velvetleaf damage rating (100=total damage to plant; 0=no damage to plant); for pest or weed control at 62.5 g/ha: 62.5 g ai/ha, 100=total damage to plant, 0=no damage to plant, read-out: Velvetleaf damage rating; for pest or weed control at 250 g/ha: 250 g ai/ha
Outline: as §2

[10] = system: barnyardgrass (Echinochloa crus-galli); assay: Test G Pre-Emergence Protocol; details: Echinochloa crus-galli, pre-emergence, 312 h, evaluated after 13 days; for pest or weed control at 15.625 g/ha: 15.625 g ai/ha; for pest or weed control at 15.625 g/ha / pest or weed control at 250 g/ha: read-out: Barnyardgrass damage rating (100=total damage to plant; 0=no damage to plant); for pest or weed control at 62.5 g/ha: 62.5 g ai/ha, 100=total damage to plant, 0=no damage to plant, read-out: Barnyardgrass damage rating; for pest or weed control at 250 g/ha: 250 g ai/ha
Outline: as §2

[11] = system: giant foxtail (Setaria faberi); assay: Test G Pre-Emergence Protocol; details: Setaria faberi, pre-emergence, 312 h, evaluated after 13 days; for pest or weed control at 15.625 g/ha: 15.625 g ai/ha; for pest or weed control at 15.625 g/ha / pest or weed control at 250 g/ha: read-out: Foxtail, Giant damage rating (100=total damage to plant; 0=no damage to plant); for pest or weed control at 62.5 g/ha: 62.5 g ai/ha, 100=total damage to plant, 0=no damage to plant, read-out: Foxtail, Giant damage rating; for pest or weed control at 250 g/ha: 250 g ai/ha
Outline: as §2

[12] = system: corn (Zea mays); assay: Test G Pre-Emergence Protocol; details: Zea mays, pre-emergence, 312 h, evaluated after 13 days; for plant injury at 15.625 g/ha: 15.625 g ai/ha; for plant injury at 15.625 g/ha / plant injury at 250 g/ha: read-out: Corn damage rating (100=total damage to plant; 0=no damage to plant); for plant injury at 62.5 g/ha: 62.5 g ai/ha, 100=total damage to plant, 0=no damage to plant, read-out: Corn damage rating; for plant injury at 250 g/ha: 250 g ai/ha
Outline: as §2

Row | Structure (SMILES) | pest or weed control at 15.625 g/ha [1] [%] | pest or weed control at 62.5 g/ha [1] [%] | pest or weed control at 250 g/ha [1] [%] | pest or weed control at 15.625 g/ha [2] [%] | pest or weed control at 62.5 g/ha [2] [%] | pest or weed control at 250 g/ha [2] [%] | pest or weed control at 15.625 g/ha [3] [%] | pest or weed control at 62.5 g/ha [3] [%] | pest or weed control at 250 g/ha [3] [%] | pest or weed control at 15.625 g/ha [4] [%] | pest or weed control at 62.5 g/ha [4] [%] | pest or weed control at 250 g/ha [4] [%] | pest or weed control at 15.625 g/ha [5] [%] | pest or weed control at 62.5 g/ha [5] [%] | pest or weed control at 250 g/ha [5] [%] | plant injury at 15.625 g/ha [6] [%] | plant injury at 62.5 g/ha [6] [%] | plant injury at 250 g/ha [6] [%] | pest or weed control at 15.625 g/ha [7] [%] | pest or weed control at 62.5 g/ha [7] [%] | also measured
1 | COc1cc(C2CN(C)C(=O)C2C(=O)Nc2cccc(F)c2F)cc(Cl)c1F (stereo not drawn) [Compound 1705] | 0 | 20 | 50 | 0 | 0 | 30 | 0 | 0 | 10 | 20 | 30 | 80 | 70 | 70 | 80 | 10 | 0 | 70 | 0 | 0 | pest or weed control at 250 g/ha [7]: 10%; pest or weed control at 15.625 g/ha [8]: 0%; pest or weed control at 62.5 g/ha [8]: 0%; pest or weed control at 250 g/ha [8]: 30%; pest or weed control at 15.625 g/ha [9]: 0%; pest or weed control at 62.5 g/ha [9]: 0%; pest or weed control at 250 g/ha [9]: 20%; pest or weed control at 15.625 g/ha [10]: 20%; pest or weed control at 62.5 g/ha [10]: 60%; pest or weed control at 250 g/ha [10]: 70%; pest or weed control at 15.625 g/ha [11]: 50%; pest or weed control at 62.5 g/ha [11]: 70%; pest or weed control at 250 g/ha [11]: 80%; plant injury at 15.625 g/ha [12]: 0%; plant injury at 62.5 g/ha [12]: 10%; plant injury at 250 g/ha [12]: 70%
2 | CCOc1ccc(C2CN(C)C(=O)C2C(=O)Nc2cccc(F)c2F)cc1OCC (stereo not drawn) [Compound 1716] | 0 | 0 | 10 | 0 | 0 | 0 | 0 | 0 | 0 | 0 | 60 | 80 | 40 | 70 | 80 | 0 | 10 | 60 | 0 | 0 | pest or weed control at 250 g/ha [7]: 0%; pest or weed control at 15.625 g/ha [8]: 0%; pest or weed control at 62.5 g/ha [8]: 10%; pest or weed control at 250 g/ha [8]: 10%; pest or weed control at 15.625 g/ha [9]: 0%; pest or weed control at 62.5 g/ha [9]: 10%; pest or weed control at 250 g/ha [9]: 10%; pest or weed control at 15.625 g/ha [10]: 0%; pest or weed control at 62.5 g/ha [10]: 80%; pest or weed control at 250 g/ha [10]: 90%; pest or weed control at 15.625 g/ha [11]: 30%; pest or weed control at 62.5 g/ha [11]: 90%; pest or weed control at 250 g/ha [11]: 90%; plant injury at 15.625 g/ha [12]: 0%; plant injury at 62.5 g/ha [12]: 0%; plant injury at 250 g/ha [12]: 60%
